# Values quoted from earlier work in patent US20230383363A1, “METHOD FOR DETERMINING SENSITIVITY TO PARP INHIBITOR OR DNA DAMAGING AGENT USING NON-FUNCTIONAL TRANSCRIPTOME” (GC GENOME CORPORATION, priority 2020, published 2023).
# Conditions: patients selected by FoundationFocusCDxBRCA (BRCA1 and BRCA2 mutations)
smiles,measurement,value
CNCc1ccc(-c2[nH]c3cc(F)cc4c3c2CCNC4=O)cc1 [rucaparib],overall response rate (ORR),53.8%
